{"source": "patent US9095505B2", "about": "“Pyrethroids for treatment of ocular movement disorders” (RBG Group, LTD., priority 2013, dated 2015)", "test_system": "canine subjects", "test": "Eye movement recording of nystagmus in canine subjects (amplitude, NAFX)", "format": "in vivo", "procedure": "Eye movements were recorded using an EyeLink 1000 remote video recording system, with a sampling rate of 500-1000 Hz.\nEfficacy was assessed by video-based eye tracking system wherein eye movement recordings of nystagmus and determination of Nystagmus Acuity Function (NAF, NAFX or eNAFX) was calculated from position and velocity data obtained from calibrated eye movement recordings. Techniques used to collect such data include a scleral search coil, non-contact infrared oculography, video pupillography and electroculography.\nNystagmus Acuity Function—NAF is a derived function that predicts the best-corrected visual acuity possible in subjects with nystagmus. NAF is based upon objective measurements of a subject's waveform characteristics during fixation of a small light-emitting diode and combines the foveation time per cycle and the standard deviations of both eye position and velocity during target foveation into a function that is linearly proportional to best-possible visual acuity.\nEvaluation of the nystagmus acuity function (NAF, NAFX, eNAFX) is often used to evaluate the quality of the nystagmus cycle and/or quantify the effect of surgical or pharmaceutical intervention on the nystagmus waveform. […]\nAmplitude—The amplitude of nystagmus was measured directly from calibrated eye movement recordings in degrees. […]", "note": "Entries after “also recorded” stand apart in the source; their conditions may differ."}
{"compound": "CC1(C)C(/C=C(\\Cl)C(F)(F)F)C1C(=O)OC(C#N)c1cccc(Oc2ccccc2)c1", "note": "[LC, (R)-cyano(3-phenoxyphenyl)methyl(1S,3S)-rel-3-[(1Z)-2-chloro-3,3,3-trifluoro-1-propenyl]-2,2-dimethylcyclopropanecarboxylate]", "values": [{"measurement": "high frequency (9-11) Hz pendular oscillation in eye position recording", "setting": "after two doses of 0.6% topical eye drop, compared to Pre Drop recording of FIG. 1", "value": "less amplitude as compared to the Pre Drop eye movement recording; also recorded: only present only in extreme gaze"}, {"measurement": "effect on nystagmus", "setting": "after two doses of 0.6% w/w formulation", "value": "significant improvement of nystagmus"}]}
